These are literature values, as cited in US20220168408A1, “MULTI-VALENT IMMUNOTHERAPY COMPOSITION AND METHODS OF USE FOR TREATING WT1-POSITIVE CANCERS” (SLSG LIMITED LLC, priority 2019, published 2022).

This data set deals with CD4+ and CD8+ responses. As to conditions: according to data from preclinical and phase 1 studies.

For “SGQAYMFPNAPYLPSCLES (Mutated Homo sapiens) [WT1-122A1 long]”, the “stimulation of CD4+ and CD8+ responses” value was “stimulate both CD4+ and CD8+ responses”.
